Assay results published in US6849732B2, “Metalloproteinase inhibitors, pharmaceutical compositions containing them and their pharmaceutical uses, and methods and intermediates useful for their preparation” (Agouron Pharmaceuticals, Inc., priority 1995, dated 2005).
Structures can show the parent of a compound that is named as a salt.

Tests used:
stromelysin (HSLN) = stromelysin (HSLN) (Homo sapiens, UniProt P08254); assay: MCA fluorogenic enzyme assay, competitive inhibition analysis (Ki,app), stromelysin; type: biochemical; settings: Ki,app; MCA peptide substrate, 37° C., pH 7.5; read-out: Enzyme Inhibition Constants (K1) HSLN
Chain of stromelysin (HSLN) (P08254 100-477): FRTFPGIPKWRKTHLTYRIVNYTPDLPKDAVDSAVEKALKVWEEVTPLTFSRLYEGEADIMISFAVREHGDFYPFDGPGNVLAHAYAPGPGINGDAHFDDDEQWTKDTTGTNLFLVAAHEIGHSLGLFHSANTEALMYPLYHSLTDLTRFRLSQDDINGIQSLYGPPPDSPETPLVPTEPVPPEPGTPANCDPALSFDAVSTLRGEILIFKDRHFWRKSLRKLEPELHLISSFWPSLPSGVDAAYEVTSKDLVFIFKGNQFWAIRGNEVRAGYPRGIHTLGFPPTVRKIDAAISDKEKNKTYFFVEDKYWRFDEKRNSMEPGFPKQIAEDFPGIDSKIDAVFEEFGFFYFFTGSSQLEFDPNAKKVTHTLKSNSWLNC

matrilysin (Matr.) = biological target: T1, matrilysin (Matr.) (Homo sapiens, UniProt P09237); assay: MCA fluorogenic enzyme assay, competitive inhibition analysis (Ki,app), matrilysin; type: biochemical; settings: MCA peptide substrate, 37° C., pH 7.5, read-out: Enzyme Inhibition Constants (K1) Matr.
T1 sequence (P09237 95-267): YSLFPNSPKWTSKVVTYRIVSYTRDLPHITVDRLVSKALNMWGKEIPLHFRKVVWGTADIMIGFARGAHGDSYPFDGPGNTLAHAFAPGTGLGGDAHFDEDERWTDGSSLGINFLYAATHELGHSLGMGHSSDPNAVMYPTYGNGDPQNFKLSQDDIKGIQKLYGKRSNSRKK
Procedure: Stromelysin enzymatic activity was measured using a modified version of a resonance energy transfer fluorogenic assay as described in FEBS, vol. 296(3), p. 263 (1992), the disclosure of which is incorporated herein by reference. The MCA-peptide substrate is shown below. The fluorescent MCA group is quenched by resonance energy transfer to the 2,4-dinitrophenyl group. Matrix metalloproteinases cleave this substrate at the Gly-Leu bond. Cleavage results in the loss of energy transfer and a large increase in fluorescence of the MCA group. [drawing 56] 7-methoxycoumarin-4-yl-acetyl-pro-leu-gly-leu-3-(2,4-dinitrophenyl)-L-2,3-diaminoproprionyl-ala-arg-NH2
The MCA assay was performed at 37° C. in buffer containing 50 mM Tricine (pH 7.5), 10 mM CaCl2, 200 mM NaCl, and 1% DMSO with the following concentrations of matrix metalloproteinases: 1.4 nM stromelyin, 0.063 nM matrilysin, and 0.030 nM gelatinase A. The concentration of MCA substrate was 10 or 20 μM in a final volume of 1.6 mL. Fluorescence data was collected with Perkin-Elmer LS-5B and LS-5B spectrofluorimeters with λexcitation=328 nm and λemission=393 nm. Spectrofluorimeters were interfaced with IBM-compatible microcomputer systems.
The Km for the MCA peptide substrate with the matrix metalloproteinases is quite high and exceeds its solubility under assay conditions. Consequently, the apparent Ki (Ki,app) was determined to describe the strength of inhibition. However, in this case, Ki,app would be essentially equal to Ki since [S]<<Km. For the determination of Ki,app, the concentration of the inhibitor was varied at a constant and low concentration of substrate and the steady-state rates of fluorescence change determined. In most cases absorptive quench due to the presence of ligand was not observed. For slow-binding inhibitors, onset of inhibition curves were collected for at least 45 minutes so that equilibrium was established. Steady-state rates of fluorescence change were obtained by fitting a curve to an equation for a single exponential decay containing a linear phase. The fitted value of the linear phase was taken as the steady-state rate. The steady-state rates were fitted to the Michaelis equation describing competitive inhibition by non-linear methods. Data resulting from tight-binding inhibition was analyzed, and Ki,app determined by fitting the data to the tight-binding equation of Morrison See (Biochem. Biophys. Acta, vol. 185, pp. 269-286 (1969)) by non-linear methods.

HFC = biological target: T2, HFC (Homo sapiens, UniProt P03956); assay: MCA fluorogenic enzyme assay, competitive inhibition analysis (Ki,app), HFC; type: biochemical; settings: MCA peptide substrate, 37° C., pH 7.5, read-out: Enzyme Inhibition Constants (K1) HFC
T2 sequence (P03956 100-469): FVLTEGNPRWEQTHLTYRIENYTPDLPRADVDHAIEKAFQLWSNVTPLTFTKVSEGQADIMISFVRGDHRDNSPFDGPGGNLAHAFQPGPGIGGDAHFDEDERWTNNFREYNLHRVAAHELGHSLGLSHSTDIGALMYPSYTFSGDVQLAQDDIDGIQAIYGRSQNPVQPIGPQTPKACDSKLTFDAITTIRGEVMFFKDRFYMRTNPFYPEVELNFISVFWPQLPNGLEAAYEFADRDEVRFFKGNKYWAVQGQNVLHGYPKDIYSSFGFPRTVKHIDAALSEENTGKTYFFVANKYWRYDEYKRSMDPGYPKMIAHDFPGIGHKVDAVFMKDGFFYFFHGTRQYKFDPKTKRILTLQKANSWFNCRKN

gelatinase A (HG72kD) = biological target: T3, gelatinase A (HG72kD) (Homo sapiens, UniProt P08253); assay: MCA fluorogenic enzyme assay, competitive inhibition analysis (Ki,app), gelatinase A; type: biochemical; settings: MCA peptide substrate, 37° C., pH 7.5, read-out: Enzyme Inhibition Constants (K1) HG72kD
T3 sequence (P08253 110-660): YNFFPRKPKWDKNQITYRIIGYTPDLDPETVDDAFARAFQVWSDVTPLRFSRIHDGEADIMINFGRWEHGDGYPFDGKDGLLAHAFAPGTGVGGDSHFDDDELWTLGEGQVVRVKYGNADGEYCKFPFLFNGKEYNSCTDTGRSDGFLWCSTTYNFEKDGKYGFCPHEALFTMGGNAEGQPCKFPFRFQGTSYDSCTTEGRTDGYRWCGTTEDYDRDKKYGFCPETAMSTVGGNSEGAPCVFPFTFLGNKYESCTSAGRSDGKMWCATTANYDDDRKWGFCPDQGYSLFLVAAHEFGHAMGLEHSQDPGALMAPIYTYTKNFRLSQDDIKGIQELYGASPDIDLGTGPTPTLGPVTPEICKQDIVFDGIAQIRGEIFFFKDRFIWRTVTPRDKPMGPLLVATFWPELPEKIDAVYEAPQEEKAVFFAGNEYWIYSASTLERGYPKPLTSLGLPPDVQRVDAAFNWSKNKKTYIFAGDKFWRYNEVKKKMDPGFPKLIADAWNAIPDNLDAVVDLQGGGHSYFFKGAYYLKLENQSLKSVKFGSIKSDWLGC

Coll3 = Coll3 (Homo sapiens, UniProt P45452); assay: MCA fluorogenic enzyme assay, competitive inhibition analysis (Ki,app), Coll3; type: biochemical; settings: MCA peptide substrate, 37° C., pH 7.5, read-out: Enzyme Inhibition Constants (K1) Coll3
[1] = tested on: murine Lewis lung carcinoma (NIH) tumor line; assay: Tumor model: subcutaneous Lewis lung carcinoma, primary tumor growth and lung metastases; type: in vivo, female BDF1 mice; settings: 50 mg/kg, i.p., daily, Day 1-Day 21; for Tumor Growth Delay: delay in reaching 1000 mm^3 tumor volume between control and treated animals; for % Inhibition-Lung Metastases: metastases counted 22 days after tumor implantation
Excerpt: Primary subcutaneous tumors were established in female BDF1 mice by trocar inoculation of the murine Lewis lung carcinoma (NIH) tumor line. This tumor line produces spontaneous lung metastases which arise from the primary tumor. Primary tumor growth was monitored by measuring the length and width of the subcutaneous tumor using calipers; lung metastases were counted at the end of the experiment (22 days after tumor implantation) by removing the lungs and counting the lesions using a dissecting microscope. The test compound was administered daily, i.p., beginning 24 hours after tumor implantation (day 1) and continuing through day 21. Primary tumor volumes and number of lung metastases were compared to control animals using an ANOVA followed by a comparison of means using the F statistic. […] All drugs were administered at 50 mg/kg, i.p., daily, Day 1-Day 21.

[2] = tested on: bovine nasal cartilage plugs; assay: Arthritis model: implanted bovine nasal cartilage plugs in sponges impregnated with Mycobacterium tuberculosis; type: in vivo, female Lewis rats; settings: p < 0.01; for weight loss % inhibition: cartilage plug weight; for hydroxyproline % protection: hydroxyproline content of plugs
Procedure: Previously frozen bovine nasal cartilage plugs weighing approximately 20 mg were embedded in polyvinyl sponges impregnated with Mycobacterium tuberculosis and implanted subcutaneously in female Lewis rats. Dosing was begun 9 days after implantation and the plugs were harvested about one week later. The plugs were weighed and then hydrolyzed and the hydroxyproline content measured. Efficaciousness was determined by the comparison of the compound-treated groups with vehicle-treated controls.

Compound | Ki (stromelysin (HSLN)) [nM] | Ki (matrilysin (Matr.)) [nM] | Ki (HFC) [nM] | Ki (gelatinase A (HG72kD)) [nM] | Ki (Coll3) [nM] | Tumor Growth Delay [1] [days] | % Inhibition-Lung Metastases [1] [%] | weight loss % inhibition ([2]; dose p.o. 10 mg/kg/day) [%] | hydroxyproline % protection ([2]; dose p.o. 10 mg/kg/day) [%] | melting point [°C] | weight loss % inhibition ([2]; dose p.o. 25 mg/kg/day) [%]
Cl.O=C(NO)C1CNCCN1S(=O)(=O)c1ccc(Oc2ccc(Br)cc2)cc1 (racemic) [5(a), 2(R/S)-N-hydroxy-1(4-(4-bromophenoxy)benzenesulfonyl)-piperazine-2-carboxamide hydrochloride] | 1.8 | 263 | 68 | 0.77 | 1.1 | 2.0 | 13.6 | 59.6 | 72.5 |  | 
CC1(C)C(C(=O)NO)N(S(=O)(=O)c2ccc(Oc3ccc(Cl)cc3)cc2)CC[S+]1[O-] [Example 19(b), 1(R), 3(S)-N-hydroxy-4-(4-(4-chlorophenoxy)benzenesulfonyl)-2,2-dimethyl-1-oxo-tetrahydro-2H-1,4-thiazine-3-carboxamide] | 2.5 |  |  | 0.018 |  |  |  |  |  | 145 to 147 | 
CC(C)(C)OC(=O)N1CCN(S(=O)(=O)c2ccc(Oc3ccc(Br)cc3)cc2)C(C(=O)NO)C1 (racemic) [Example 4, 2(R/S)-N-hydroxy-1-(4-(4-bromophenoxy)benzenesulfonyl)-4-(t-butoxycarbonyl)-piperazine-2-carboxamide] | 0.73 | 378 | 60 | 0.025 | 0.07 |  |  |  |  | 112.4 | 
CC(=O)N1CCN(S(=O)(=O)c2ccc(Oc3ccccc3)cc2)C(C(=O)NO)C1 (racemic) [7(a), 2(R/S)-N-hydroxy-1-(4-phenoxybenzenesulfonyl)-4-acetyl-piperazine-2-carboxamide] | 0.64 | 113 |  | 0.11 | 0.05 | 0.0 | 16.1 | 77.4 | 86.7 |  | 
Cc1ccc(Oc2ccc(S(=O)(=O)Cl)cc2)cc1 [2(b), 4-(4-Methylphenoxy)benzenesulfonyl chloride] |  |  |  |  |  |  |  |  |  | 295 to 300 | 81.1
O=C(NO)C1CNCCN1S(=O)(=O)c1ccc(Oc2ccccc2)cc1 (racemic) [Example 5(b), 2(R/S)-N-hydroxy-1-(4-phenoxybenzenesulfonyl)-piperazine-2-carboxamide] | 6.2 | 560 |  | 0.864 |  |  |  |  |  | 160.4 | 
CC1(C)SCCN(S(=O)(=O)c2ccc(Oc3ccc(-n4ccnc4)cc3)cc2)[C@H]1C(=O)NO [3(a), 3(S)-N-hydroxy-4-(4-(4-(imidazol-1-yl)phenoxy)benzenesulfonyl)-2,2-dimethyl-tetrahydro-2H-1,4-thiazine-3-carboxamide] | 0.25 | 5 | 15 | 0.011 | 0.017 |  |  |  |  |  | 97.5
CCOC(=O)CN1CCN(S(=O)(=O)c2ccc(Oc3ccc(Cl)cc3)cc2)[C@@H](C(=O)NO)C1 (as salt: hydrochloride) [Example 11(c), 2(R)-N-hydroxy-1-(4-(4-chlorophenoxy)benzenesulfonyl)-4-(ethoxycarbonylmethyl)-piperazine-2-carboxamide hydrochloride] |  |  |  |  |  |  |  |  |  | 163.7 | 
